In patent publication US8906925B2, “Pyrido[4,3-B]indoles containing rigid moieties” (Medivation Technologies, Inc., priority 2008, dated 2014):

Key:
[1] = biological target: human dopamine D2L receptor (Homo sapiens, UniProt P14416); assay: Dopamine D2L radioligand binding ([3H]Spiperone); conditions: percent inhibition of specific binding, compound at 1 μM; for inhibition at 1 µM: read-out: Inhibition of ligand binding, Dopamine D2L; for Inhibition of ligand binding, Dopamine D2L: 1 µM
Description: Non-specific binding was estimated in the presence of […] Haloperidol. Receptor proteins were filtered and washed, the filters were then counted to determine [^3H]Spiperone specifically bound. […] Biochemical assay results are presented as the percent inhibition of specific binding in Table 9.

[2] = biological target: T1, human recombinant serotonin (5-Hydroxytryptamine) 5-HT6 receptor (Homo sapiens, UniProt P50406); assay: Serotonin 5-HT6 radioligand binding ([3H]LSD); conditions: read-out: Inhibition of ligand binding, Serotonin 5-HT6 (percent inhibition of specific binding); for inhibition at 1 µM: compound at 1 μM; for inhibition at 0.1 µM: compound at 0.1 μM
T1 construct: expressed in transfected cells; host or cells: human HeLa cells
T1 sequence (P50406 whole entry): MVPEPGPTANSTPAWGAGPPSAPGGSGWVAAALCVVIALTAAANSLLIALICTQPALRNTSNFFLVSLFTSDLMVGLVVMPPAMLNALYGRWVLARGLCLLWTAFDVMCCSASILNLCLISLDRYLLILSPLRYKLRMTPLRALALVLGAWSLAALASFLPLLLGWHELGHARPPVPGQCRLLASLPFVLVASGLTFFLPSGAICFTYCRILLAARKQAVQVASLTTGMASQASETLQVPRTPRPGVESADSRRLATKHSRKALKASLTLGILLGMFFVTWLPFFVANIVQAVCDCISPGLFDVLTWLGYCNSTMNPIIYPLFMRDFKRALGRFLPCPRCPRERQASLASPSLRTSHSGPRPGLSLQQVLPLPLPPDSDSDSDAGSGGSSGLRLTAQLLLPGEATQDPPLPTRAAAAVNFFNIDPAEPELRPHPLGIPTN
Procedure: Compounds of the invention were incubated with 1.5 nM [3H]Lysergic acid diethylamide (LSD) for 120 min. at 37° C. […] Receptor proteins were filtered and washed, the filters were then counted to determine [3H]LSD specifically bound. Compounds were screened at 1 μM or lower, using 1% DMSO as vehicle. Biochemical assay results are presented as the percent inhibition of specific binding in Table 10.

[3] = biological target: T2, human recombinant serotonin (5-Hydroxytryptamine) 5-HT2A receptor (Homo sapiens, UniProt P28223); assay: Serotonin 5-HT2A radioligand binding ([3H]Ketanserin); conditions: for inhibition at 1 µM: read-out: Inhibition of ligand binding, Serotonin 5-HT2A (percent inhibition of specific binding), compound at 1 μM; for inhibition at 0.1 µM: read-out: Inhibition of ligand binding, Serotonin 5-HT2A (percent inhibition of specific binding), compound at 0.1 μM
T2 construct: expressed in transfected cells; host or cells: Chinese hamster ovary (CHO-K1) cells
T2 sequence (P28223 whole entry): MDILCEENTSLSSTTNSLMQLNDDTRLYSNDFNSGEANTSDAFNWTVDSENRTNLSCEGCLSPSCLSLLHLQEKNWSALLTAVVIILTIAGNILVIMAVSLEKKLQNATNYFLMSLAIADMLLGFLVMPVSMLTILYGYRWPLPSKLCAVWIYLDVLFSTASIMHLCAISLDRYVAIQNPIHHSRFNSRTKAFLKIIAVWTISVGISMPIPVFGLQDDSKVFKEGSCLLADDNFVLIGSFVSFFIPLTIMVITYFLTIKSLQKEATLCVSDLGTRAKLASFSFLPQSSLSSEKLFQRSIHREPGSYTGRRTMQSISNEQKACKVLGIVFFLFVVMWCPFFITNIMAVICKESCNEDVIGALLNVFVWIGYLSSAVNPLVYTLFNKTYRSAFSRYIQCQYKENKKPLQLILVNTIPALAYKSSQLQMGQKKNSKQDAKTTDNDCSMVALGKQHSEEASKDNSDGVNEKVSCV
Procedure: Compounds of the invention were incubated with 0.5 nM [^3H]Ketanserin for 60 min. at 25° C. Non-specific binding was estimated in the presence of 1 μM Mianserin. Receptor proteins were filtered and washed, the filters were then counted to determine [^3H]Ketanserin specifically bound.

[4] = biological target: human recombinant serotonin (5-Hydroxytryptamine) 5-HT7 receptor (Homo sapiens, UniProt P34969); assay: Serotonin 5-HT7 radioligand binding ([3H]LSD); conditions: read-out: Inhibition of ligand binding, Serotonin 5-HT7 (percent inhibition of specific binding); for inhibition at 1 µM: compound at 1 μM; for inhibition at 0.1 µM: compound at 0.1 μM
Chain of human recombinant serotonin (5-Hydroxytryptamine) 5-HT7 receptor (P34969 whole entry): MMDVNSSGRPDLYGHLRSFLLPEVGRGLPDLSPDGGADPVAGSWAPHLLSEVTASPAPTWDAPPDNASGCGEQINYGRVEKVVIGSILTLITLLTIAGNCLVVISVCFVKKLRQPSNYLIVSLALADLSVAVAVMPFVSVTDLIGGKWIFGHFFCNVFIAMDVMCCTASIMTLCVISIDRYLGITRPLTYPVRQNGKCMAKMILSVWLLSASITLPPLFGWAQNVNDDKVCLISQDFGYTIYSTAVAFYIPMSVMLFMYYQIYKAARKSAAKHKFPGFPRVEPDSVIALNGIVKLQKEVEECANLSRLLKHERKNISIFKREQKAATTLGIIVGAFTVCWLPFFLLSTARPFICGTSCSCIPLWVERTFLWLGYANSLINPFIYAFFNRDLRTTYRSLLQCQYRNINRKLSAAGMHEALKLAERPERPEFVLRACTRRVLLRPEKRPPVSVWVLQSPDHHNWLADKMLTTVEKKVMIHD
Description: Receptor proteins were filtered and washed, the filters were then counted to determine [^3H]LSD specifically bound.

[5] = biological target: T3, human recombinant histamine H2 receptor (Homo sapiens, UniProt P25021); assay: Histamine H2 radioligand binding ([125I]Aminopotentidine); conditions: read-out: Histamine Binding (1 μM) H2, percent inhibition of specific binding, 1 μM
T3 construct: expressed in transfected cells; host or cells: Chinese hamster ovary (CHO) K1 cells
T3 sequence (P25021 whole entry): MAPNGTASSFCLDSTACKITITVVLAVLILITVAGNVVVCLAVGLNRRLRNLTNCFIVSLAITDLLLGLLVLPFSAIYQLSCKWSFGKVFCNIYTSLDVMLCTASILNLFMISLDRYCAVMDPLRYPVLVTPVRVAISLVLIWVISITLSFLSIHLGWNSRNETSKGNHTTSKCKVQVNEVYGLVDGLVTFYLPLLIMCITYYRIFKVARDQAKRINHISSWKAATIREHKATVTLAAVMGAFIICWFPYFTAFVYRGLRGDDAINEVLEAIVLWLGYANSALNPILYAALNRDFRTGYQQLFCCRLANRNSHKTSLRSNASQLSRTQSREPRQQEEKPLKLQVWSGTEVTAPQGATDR
How it was run: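 Receptor source: human recombinant H2 in CHO-K1 cells, assayed in 50 mM phosphate pH 7.4. Competition against 0.1 nM [125I]aminopotentidine, 120 min, 25 °C; 3 μM tiotidine sets nonspecific binding, filter-bound counts give specific binding.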

[6] = biological target: T4, human recombinant serotonin (5-Hydroxytryptamine) 5-HT2C receptor (Homo sapiens, UniProt P28335); assay: Serotonin 5-HT2C radioligand binding ([3H]Mesulergine); conditions: read-out: Inhibition of ligand binding, Serotonin 5-HT2C (percent inhibition of specific binding); for inhibition at 1 µM: compound at 1 μM; for inhibition at 0.1 µM: compound at 0.1 μM
T4 construct: expressed in transfected cells; host or cells: Chinese hamster ovary (CHO-K1) cells
T4 sequence (P28335 33-458): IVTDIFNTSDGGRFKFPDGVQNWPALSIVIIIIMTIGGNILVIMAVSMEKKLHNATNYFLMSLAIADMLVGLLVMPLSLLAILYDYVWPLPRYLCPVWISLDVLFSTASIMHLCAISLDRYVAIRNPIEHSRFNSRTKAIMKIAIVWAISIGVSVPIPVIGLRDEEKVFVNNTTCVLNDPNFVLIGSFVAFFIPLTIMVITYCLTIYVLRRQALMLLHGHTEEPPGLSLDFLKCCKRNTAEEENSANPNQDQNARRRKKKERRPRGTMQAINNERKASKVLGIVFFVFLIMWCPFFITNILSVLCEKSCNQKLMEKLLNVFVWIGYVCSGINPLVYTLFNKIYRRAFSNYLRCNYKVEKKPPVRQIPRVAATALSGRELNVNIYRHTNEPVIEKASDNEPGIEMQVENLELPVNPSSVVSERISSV
How it was run: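 Compounds tested at 1 μM or lower (1% DMSO vehicle) for displacement of 1 nM [3H]Mesulergine over 60 min at 25° C. Specific binding determined by filtration counting, with 1 μM Mianserin defining non-specific binding; values are percent inhibition.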

[7] = biological target: T5, human recombinant serotonin 5-HT1B receptor (Homo sapiens, UniProt P28222); assay: 5-HT1B radioligand binding competition assay ([3H]5-CT, CHO-K1 membranes); conditions: for 5-HT1B (5 μM) % Binding relative to bound radioligand: in duplicate, average
T5 construct: expressed in transfected cells; host or cells: CHO-K1 cell line, membrane extracts
T5 sequence (P28222 whole entry): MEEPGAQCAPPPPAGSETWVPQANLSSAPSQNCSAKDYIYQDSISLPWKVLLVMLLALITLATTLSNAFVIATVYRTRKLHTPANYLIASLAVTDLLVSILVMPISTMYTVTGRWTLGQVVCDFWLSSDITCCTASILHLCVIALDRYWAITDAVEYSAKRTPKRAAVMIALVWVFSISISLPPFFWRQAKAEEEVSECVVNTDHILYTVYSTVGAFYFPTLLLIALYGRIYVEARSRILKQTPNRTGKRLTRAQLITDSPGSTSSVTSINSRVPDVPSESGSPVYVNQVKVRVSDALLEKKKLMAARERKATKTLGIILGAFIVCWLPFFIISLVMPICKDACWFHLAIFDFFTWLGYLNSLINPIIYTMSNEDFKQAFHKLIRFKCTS
Procedure: To determine the binding activity at the human recombinant serotonin 5-HT1B receptor of compounds of the invention, CHO-K1 cell line expressing the human 5-HT1B recombinant receptor was amplified to prepare membranes used for the radioligand binding assay throughout the study. Radioligand binding competition on 5-HT1B was performed by adding successively in the wells of a 96 well plate (Master Block, Greiner, 786201). […] The plate was incubated 60 min at 25° C. in a water bath and then filtered over GF/B filters (Perkin Elmer, 6005177, presoaked in 0.5% PE1 for 2 h at room temperature) with a Filtration unit (Perkin Elmer). The filters were washed 3× with 0.5 mL of ice-cold washing buffer (50 mM Tris pH 7.4). 50 μL Microscint 20 (Packard) was added and the plate was incubated 15 min on an orbital shaker and then counted with a TopCount™ for 1 min/well.
The reference value thus obtained for the test was compared to a historical value obtained from the same receptor and used to validate the experimental session. […] For replicate determinations, the maximum variability tolerated in the test was of +/−20% around the average of the replicates.
Compounds were tested for binding activity in the radioligand binding competition assay on human 5-HT1B receptor, at one concentration […], in duplicate. Dose-response data from test compounds were analyzed with XLfit (IDBS) software using nonlinear regression applied to a sigmoidal dose-response model.
Dose-response data was analyzed with XLfit (IDBS) software using non-linear regression applied to a sigmoidal dose-response model.

[8] = biological target: histamine receptor H1 (Homo sapiens, UniProt P35367); assay: Histamine H1 radioligand binding ([3H]Pyrilamine); conditions: for inhibition at 1 µM: read-out: Histamine Binding (1 μM) H1, percent inhibition of specific binding, 1 μM
Chain of histamine receptor H1 (P35367 whole entry): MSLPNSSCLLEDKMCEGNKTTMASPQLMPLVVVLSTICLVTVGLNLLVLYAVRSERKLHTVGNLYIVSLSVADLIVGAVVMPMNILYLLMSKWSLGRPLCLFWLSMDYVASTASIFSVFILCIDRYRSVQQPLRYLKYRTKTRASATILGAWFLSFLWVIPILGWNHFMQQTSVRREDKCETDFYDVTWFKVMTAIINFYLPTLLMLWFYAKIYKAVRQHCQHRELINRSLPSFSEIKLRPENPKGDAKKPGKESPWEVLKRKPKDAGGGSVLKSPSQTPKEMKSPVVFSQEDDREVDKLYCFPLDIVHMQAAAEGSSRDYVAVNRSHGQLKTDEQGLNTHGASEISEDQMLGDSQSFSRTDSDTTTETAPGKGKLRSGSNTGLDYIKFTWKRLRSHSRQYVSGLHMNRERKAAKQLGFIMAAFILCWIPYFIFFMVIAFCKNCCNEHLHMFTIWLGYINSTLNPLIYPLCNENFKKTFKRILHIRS
How it was run: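 Values are percent inhibition of specific [3H]pyrilamine (1.2 nM) binding with compounds at ≤1 μM (1% DMSO vehicle); 180 min incubation at 25 °C, pH 7.4 Tris buffer, on CHO-expressed human H1 receptor; 1 μM pyrilamine defined nonspecific binding, bound ligand counted after filtration.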

[9] = test system: C57B1I6J mice; assay: Catalepsy in the mouse bar test (EPS model); assay type: in vivo; conditions: 2 mg/kg i.p.
Description: Antipsychotic drugs are known to induce extrapyramidal syndrome (EPS) in animals and in humans. An animal model considered to be predictive of EPS is the mouse bar test, which measures cataleptic responses to pharmacological agents.
Male C57B1I6J mice from Jackson Laboratories (Bar Harbor, Me.) were used. Mice were received at 6-weeks of age. Upon receipt, mice were assigned unique identification numbers (tail marked) and were group housed with 4 mice/cage in OptiMICE ventilated cages. All animals remained housed in groups of four during the remainder of the study. All mice were acclimated to the colony room for at least two weeks prior to testing and were subsequently tested at an average age of 8 weeks. During the period of acclimation, mice were examined on a regular basis, handled, and weighed to assure adequate health and suitability. Animals were maintained on a 12 h/12 h light/dark cycle. The room temperature was maintained between 20 and 23° C. with a relative humidity maintained between 30% and 70%. Chow and water were provided ad libitum for the duration of the study. In each test, animals were randomly assigned across treatment groups.
The following compounds were used for this study. 1) Compound No. 83, 88 or 90 (0.03, 0.1, 0.3, 1, 3, 10, 30) was dissolved in 3% Tween in PBS and administered orally at a dose volume of 10 mL/kg; 2) Haloperidol (2 mg/kg) was dissolved in 10% DMSO and administered i.p. at a dose volume of 10 mL/kg.
The front paws of a mouse were placed on a horizontal metal bar raised 2″ above a Plexiglas platform and time was recorded for up to 30 seconds per trial. The test ended when the animal's front paws returned to the platform or after 30 seconds. The test was repeated three times and the average of the three trials was reported as the intensity index of catalepsy. Antipsychotic agents such as haloperidol cause rigidity as a side effect. Animals treated with haloperidol will hold on to the bar without moving for several minutes. Mice were brought to the activity experimental room for at least 1 h acclimation to the experimental room conditions prior to testing. Following injection of either vehicle, Compound No. 83, 88 or 90, or haloperidol, catalepsy was assessed at 3 time points: 30 min, 1 h, and 3 h. At the end of each trial, the apparatus was thoroughly cleaned with 70% ethanol.
Data were analyzed by analysis of variance (ANOVA) followed by post-hoc comparisons with Fisher Tests when appropriate. An effect was considered significant if p<0.05.

Chain of human dopamine D2L receptor (P14416 whole entry): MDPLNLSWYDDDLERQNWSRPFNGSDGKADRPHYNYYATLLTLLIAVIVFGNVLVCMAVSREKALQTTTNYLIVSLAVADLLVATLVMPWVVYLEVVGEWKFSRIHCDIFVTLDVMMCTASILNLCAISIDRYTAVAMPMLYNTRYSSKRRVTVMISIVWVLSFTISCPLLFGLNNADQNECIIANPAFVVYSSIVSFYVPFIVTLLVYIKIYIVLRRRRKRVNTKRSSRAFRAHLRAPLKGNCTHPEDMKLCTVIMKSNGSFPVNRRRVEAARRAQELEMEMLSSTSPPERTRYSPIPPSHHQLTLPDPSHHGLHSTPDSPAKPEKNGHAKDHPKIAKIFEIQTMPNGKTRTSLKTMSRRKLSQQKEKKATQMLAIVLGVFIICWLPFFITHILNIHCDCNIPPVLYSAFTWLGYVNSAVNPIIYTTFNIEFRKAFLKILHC

Structure (SMILES)	inhibition at 1 µM [1]	inhibition at 1 µM [2]	inhibition at 1 µM [3]	inhibition at 1 µM [4]	inhibition at 1 µM [5]	inhibition at 1 µM [6]	5-HT1B (5 μM) % Binding relative to bound radioligand [7]	inhibition at 1 µM [8]	Inhibition of ligand binding, Dopamine D2L [1]	inhibition at 0.1 µM [2]	inhibition at 0.1 µM [3]	inhibition at 0.1 µM [4]	inhibition at 0.1 µM [6]	Histamine Binding (1 μM) H1, percent inhibition of specific binding [8]	further results
C/C(=C\n1c2c(c3cc(C)ccc31)CN(C)CC2)c1cccnc1 [Compound 91, (E)-2,3,4,5-tetrahydro-2,8-dimethyl-5-(2-(pyridin-3-yl)prop-1-enyl)-1H-pyrido[4,3-b]indole]	27%	76%	98%	95%	52%	100%	9%	11%							IC50 [7]: 365 nM; % Binding relative to bound radioligand (5-HT1B) ([7]; Conc. 0.08 nM): 120%; % Binding relative to bound radioligand (5-HT1B) ([7]; Conc. 5 nM): 129%; % Binding relative to bound radioligand (5-HT1B) ([7]; Conc. 20 nM): 113%; % Binding relative to bound radioligand (5-HT1B) ([7]; Conc. 78 nM): 103%; % Binding relative to bound radioligand (5-HT1B) ([7]; Conc. 313 nM): 66%; % Binding relative to bound radioligand (5-HT1B) ([7]; Conc. 1250 nM): 31%; % Binding relative to bound radioligand (5-HT1B) ([7]; Conc. 20000 nM): 1%; % Binding relative to bound radioligand (5-HT1B) ([7]; Conc. 50000 nM): −5%
CN1CCc2c(c3cccc(Cl)c3n2CC(C)(O)c2ccncc2)C1 (stereo not drawn) [Compound 182, 1-(6-chloro-2-methyl-3,4-dihydro-1H-pyrido[4,3-b]indol-5(2H)-yl)-2-(pyridin-4-yl)propan-2-ol]	8%	47%	91%	54%	53%	93%	3%	26%							
C/C(=C\n1c2c(c3cccc(F)c31)CN(C)CC2)c1ccncc1 [Compound 223, (E)-6-fluoro-2-methyl-5-(2-(pyridin-4-yl)prop-1-enyl)-2,3,4,5-tetrahydro-1H-pyrido[4,3-b]indole]	96%	103%	95%	91%	44%	93%	4%	6%	97%	104%	97%	67%	81%	11%	
C/C(=C/n1c2c(c3cc(C)ccc31)CN(C)CC2)c1ccncc1 [Compound 224, (Z)-2,8-dimethyl-5-(2-(pyridin-4-yl)prop-1-enyl)-2,3,4,5-tetrahydro-1H-pyrido[4,3-b]indole]	65%	102%	99%	91%	58%	97%	10%	24%	80%	96%	92%	88%	95%	26%	
O=C(CCCN1CCC(O)(c2ccc(Cl)cc2)CC1)c1ccc(F)cc1 [Haloperidol, haloperidol, reference compound]															catalepsy (bar test) [9]: increased catalepsy
